Source: PubChem BioAssay (NCI)
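Dose response: 5 concentrations. Exposure: 48 h. Format: 96-well plates. Endpoint: linear interpolation; highest concentration if not reached. Here, GI50 denotes the concentration required for 50% inhibition of growth. TGI: concentration producing complete growth inhibition.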

What was measured:
Experiment in all cases: inhibition of tumour cell growth, NCI panel, 48 h
[1] = tested on: NCI-H23 lung
[2] = tested on: UACC-62 melanoma
[3] = tested on: IGROV1 ovarian
[4] = tested on: DU-145 prostate
[5] = tested on: SNB-19 CNS
[6] = tested on: A549 NSCLC
[7] = tested on: COLO 205 colon
[8] = tested on: T-47D breast
[9] = tested on: HCC-2998 colon

Row | Structure (SMILES) | TGI [1] | TGI [2] | TGI [3] | TGI [4] | TGI [5] | TGI [6] | TGI [7] | TGI [8] | TGI [9] | GI50 [2] | GI50 [4]
1 | CC(NC(=O)N(C)C)NC(=O)N(C)C | > 10 µM | > 10 µM | > 10 µM | > 10 µM | > 10 µM | > 10 µM | > 10 µM | > 10 µM | > 10 µM | – | –
2 | CC(=O)OC1C(COC(=O)c2ccccc2)OC(Nc2ncc(-c3ccc(Br)cc3)s2)C(OC(=O)c2ccccc2)C1OC(=O)c1ccccc1 (stereo unspecified) | > 100 µM | > 100 µM | > 100 µM | > 100 µM | > 100 µM | > 100 µM | > 100 µM | > 100 µM | – | – | –
3 | O=c1cc(-c2cc(O)c(O)c(-c3c(O)cc4oc(-c5ccc(O)c(O)c5)cc(=O)c4c3O)c2)oc2cc(O)cc(O)c12 | > 25 µM | > 25 µM | > 25 µM | > 25 µM | – | > 25 µM | > 25 µM | > 25 µM | > 25 µM | – | –
4 | O=C1c2ccccc2NC(=S)[C@@H]2CCCN12 | > 100 µM | > 100 µM | > 100 µM | > 100 µM | > 100 µM | > 100 µM | > 100 µM | > 100 µM | > 100 µM | – | –
5 | CO[C@@H]1O[C@H](C(=O)c2ccccc2)[C@H]2OC(C)(C)O[C@@H]12 | > 100 µM | > 100 µM | > 100 µM | > 100 µM | > 100 µM | – | > 100 µM | > 100 µM | > 100 µM | – | –
6 | N#Cc1nc(C2CCC2)oc1N | > 100 µM | > 100 µM | > 100 µM | > 100 µM | > 100 µM | > 100 µM | > 100 µM | > 100 µM | > 100 µM | – | –
7 | COc1cc2ccc1OCc1cccc(n1)COc1ccc(cc1OC)C=Nc1ccc(cc1)N=C2 | > 100 µM | > 100 µM | > 100 µM | > 100 µM | > 100 µM | > 100 µM | > 100 µM | > 100 µM | > 100 µM | – | –
8 | COC1=C(C)C(=O)c2c(c(COC(N)=O)c3n2CC(OC(C)=O)C3OC(C)=O)C1=O (stereo unspecified) | 0.25 µM | 0.245 µM | 0.402 µM | 0.265 µM | 2.09 µM | 1.6 µM | 0.314 µM | 3.11 µM | 0.262 µM | – | –
9 | C[C@]12CC[C@@H]3c4cc(I)c(O)cc4CC[C@H]3[C@@H]1CC[C@@H]2O | 25.1 µM | 14.5 µM | 20.5 µM | 23.8 µM | 34.9 µM | 25.1 µM | 36.2 µM | 37.4 µM | 21 µM | 3.63 µM | 6.9 µM
10 | COc1ccc(-c2cc(-c3ccccc3)[nH]c(=S)c2C#N)cc1 | 52.3 µM | 46.2 µM | > 100 µM | > 100 µM | > 100 µM | 37.9 µM | – | 94.3 µM | > 100 µM | – | –
11 | O=c1[nH]nc(Cc2ccccc2)n1/N=C/c1ccncc1 | > 100 µM | – | > 100 µM | > 100 µM | > 100 µM | > 100 µM | > 100 µM | > 100 µM | > 100 µM | – | –
12 | COC(=O)[C@H](Cc1ccccc1)NC(=O)CCCCCCC(=O)NO | > 100 µM | 46.8 µM | 57.5 µM | 38.5 µM | > 100 µM | > 100 µM | > 100 µM | 8.88 µM | 42.5 µM | – | –
13 | CO[C@]12C[C@H](CNC(=O)c3ccc[nH]3)O[C@H]1NC(=O)N2 | > 100 µM | > 100 µM | > 100 µM | > 100 µM | > 100 µM | > 100 µM | > 100 µM | > 100 µM | – | – | –
14 | O=c1[nH]c(Nc2cccc(CO)c2)nc2nc[nH]c12 | > 100 µM | > 100 µM | > 100 µM | > 100 µM | > 100 µM | > 100 µM | > 100 µM | > 100 µM | > 100 µM | – | –
15 | COc1cc(NC(C)=O)ccc1C(=O)NN1C(=O)/C(=C/c2ccco2)N=C1c1ccccc1 | > 50 µM | > 50 µM | > 50 µM | > 50 µM | > 50 µM | > 50 µM | > 50 µM | > 50 µM | – | – | –
16 | CCCCn1c(-c2ccc([N+](=O)[O-])cc2)cs/c1=N/N=C1\C(=O)Nc2ccc(Br)cc21 | 33.1 µM | 76.1 µM | > 100 µM | 30 µM | 69.3 µM | 85.8 µM | 28.7 µM | 35.1 µM | 34.7 µM | – | –
17 | COC(=O)/C(C#N)=C(/NCCN)Nc1ccccc1 | > 100 µM | – | > 100 µM | > 100 µM | > 100 µM | > 100 µM | > 100 µM | > 100 µM | > 100 µM | – | –
18 | Nc1nn2c(=O)c3ccccc3nc2s1 | > 100 µM | > 100 µM | > 100 µM | > 100 µM | > 100 µM | > 100 µM | > 100 µM | > 100 µM | > 100 µM | – | –
19 | Cc1ccc(/C=C2\Cc3c(C)cc(C)cc3C2=O)c(C(=O)O)c1 | > 100 µM | > 100 µM | > 100 µM | > 100 µM | > 100 µM | > 100 µM | 98.2 µM | > 100 µM | 98.6 µM | – | –
20 | COCCOCCOC1=CC(=O)c2c(O)ccc(O)c2C1=O | 3.23 µM | 3.34 µM | 3.21 µM | 2.82 µM | 3.28 µM | 3.38 µM | 0.883 µM | 3.48 µM | 3.51 µM | – | –
21 | CN(C)CC1CCC(CN(C)C)C1=O (stereo unspecified) | 12.9 µM | 27.2 µM | 15.4 µM | – | > 100 µM | 39 µM | 1.41 µM | 3.48 µM | 32.9 µM | – | –
22 | CC(=O)OCc1c(O)c2c(c(O)c1COC(C)=O)C(=O)C=CC2=O | 29 µM | 19.3 µM | 30.5 µM | – | – | 35.9 µM | 10.5 µM | – | 31.3 µM | – | –
23 | N#Cc1nc(NC(=O)c2ccccc2C(=O)O)c(C#N)[nH]1 | > 100 µM | > 100 µM | > 100 µM | > 100 µM | > 100 µM | > 100 µM | > 100 µM | > 100 µM | – | – | –
